# Test results from PubChem BioAssay (NCI).
#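 Interpolation was linear, between the two tested concentrations surrounding the appropriate level; five concentrations were tested over 48 hours in 96-well plates. Definition used: TGI = concentration required for complete inhibition of growth.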
# Experiments:
# Assay in all cases: DTP human tumour cell line panel, 48 h
# CCRF-CEM leukemia = test system: CCRF-CEM leukemia
# OVCAR-4 ovarian = test system: OVCAR-4 ovarian
# UO-31 renal = test system: UO-31 renal
# NCI-H460 lung = test system: NCI-H460 lung
# NCI-H226 lung = test system: NCI-H226 lung
# OVCAR-5 ovarian = test system: OVCAR-5 ovarian
# KM20L2 colon = test system: KM20L2 colon
# COLO 205 colon = test system: COLO 205 colon
# UACC-62 melanoma = test system: UACC-62 melanoma
# LXFL 529 NSCLC = test system: LXFL 529 NSCLC
# HCT-116 colon = test system: HCT-116 colon
# A549 NSCLC = test system: A549 NSCLC
# K-562 leukemia = test system: K-562 leukemia
# SF-268 CNS = test system: SF-268 CNS
# MOLT-4 leukemia = test system: MOLT-4 leukemia
# SF-295 CNS = test system: SF-295 CNS
# OVCAR-3 ovarian = test system: OVCAR-3 ovarian
# U251 CNS = test system: U251 CNS
# A498 renal = test system: A498 renal
# TK-10 renal = test system: TK-10 renal
# LOX IMVI melanoma = test system: LOX IMVI melanoma
# RPMI-8226 leukemia = test system: RPMI-8226 leukemia
# DLD-1 colon = test system: DLD-1 colon
# OVCAR-8 ovarian = test system: OVCAR-8 ovarian
# SN12C renal = test system: SN12C renal
# NCI-H522 lung = test system: NCI-H522 lung
# SF-539 CNS = test system: SF-539 CNS
# SR leukemia = test system: SR leukemia
# HL-60(TB) leukemia = test system: HL-60(TB) leukemia
# HCT-15 colon = test system: HCT-15 colon
# SK-MEL-28 melanoma = test system: SK-MEL-28 melanoma
# M19-MEL melanoma = test system: M19-MEL melanoma
# UACC-257 melanoma = test system: UACC-257 melanoma
# DMS 114 small cell lung = test system: DMS 114 small cell lung
# RXF-631 renal = test system: RXF-631 renal
# M14 melanoma = test system: M14 melanoma
# 786-0 renal = test system: 786-0 renal
# SNB-19 CNS = test system: SNB-19 CNS
# SK-OV-3 ovarian = test system: SK-OV-3 ovarian
# HOP-62 NSCLC = test system: HOP-62 NSCLC
# IGROV1 ovarian = test system: IGROV1 ovarian
# KM12 colon = test system: KM12 colon
# SK-MEL-5 melanoma = test system: SK-MEL-5 melanoma
# SW-620 colon = test system: SW-620 colon
# HOP-92 NSCLC = test system: HOP-92 NSCLC
# CAKI-1 renal = test system: CAKI-1 renal
# SK-MEL-2 melanoma = test system: SK-MEL-2 melanoma
# ACHN renal = test system: ACHN renal
# MALME-3M melanoma = test system: MALME-3M melanoma
# SNB-75 CNS = test system: SNB-75 CNS
# HT29 colon = test system: HT29 colon
# SNB-78 CNS = test system: SNB-78 CNS
# NCI-H23 lung = test system: NCI-H23 lung
# DMS 273 small cell lung = test system: DMS 273 small cell lung
# XF 498 CNS = test system: XF 498 CNS
# HOP-18 NSCLC = test system: HOP-18 NSCLC
# HCC-2998 colon = test system: HCC-2998 colon
# EKVX NSCLC = test system: EKVX NSCLC
# MDA-N = test system: MDA-N
# RXF 393 renal = test system: RXF 393 renal
# MCF7 breast = test system: MCF7 breast
# MDA-MB-231 breast = test system: MDA-MB-231 breast
# NCI/ADR-RES ovarian = test system: NCI/ADR-RES ovarian
# PC-3 prostate = test system: PC-3 prostate
# BT-549 breast = test system: BT-549 breast
# DU-145 prostate = test system: DU-145 prostate
# HS 578T breast = test system: HS 578T breast
# MDA-MB-435 = test system: MDA-MB-435
smiles,measurement,setting,value
Cc1cc(N(CCC#N)CCC#N)ccc1/C=C1N=C(/C=C/c2ccccc2)N(c2ccc(S(N)(=O)=O)cc2)C\1=O,TGI,CCRF-CEM leukemia,> 100 µM
same,TGI,OVCAR-4 ovarian,> 100 µM
same,TGI,UO-31 renal,> 100 µM
same,TGI,NCI-H460 lung,> 100 µM
same,TGI,NCI-H226 lung,> 100 µM
same,TGI,OVCAR-5 ovarian,> 100 µM
same,TGI,KM20L2 colon,> 100 µM
same,TGI,COLO 205 colon,> 100 µM
same,TGI,UACC-62 melanoma,> 100 µM
same,TGI,LXFL 529 NSCLC,> 100 µM
same,TGI,HCT-116 colon,> 100 µM
same,TGI,A549 NSCLC,> 100 µM
same,TGI,K-562 leukemia,> 100 µM
same,TGI,SF-268 CNS,> 100 µM
same,TGI,MOLT-4 leukemia,> 100 µM
same,TGI,SF-295 CNS,> 100 µM
same,TGI,OVCAR-3 ovarian,> 100 µM
same,TGI,U251 CNS,> 100 µM
same,TGI,A498 renal,> 100 µM
same,TGI,TK-10 renal,> 100 µM
same,TGI,LOX IMVI melanoma,> 100 µM
same,TGI,RPMI-8226 leukemia,> 100 µM
same,TGI,DLD-1 colon,> 100 µM
same,TGI,OVCAR-8 ovarian,> 100 µM
same,TGI,SN12C renal,> 100 µM
same,TGI,NCI-H522 lung,> 100 µM
same,TGI,SF-539 CNS,> 100 µM
same,TGI,SR leukemia,> 100 µM
same,TGI,HL-60(TB) leukemia,> 100 µM
same,TGI,HCT-15 colon,> 100 µM
same,TGI,SK-MEL-28 melanoma,> 100 µM
same,TGI,M19-MEL melanoma,> 100 µM
same,TGI,UACC-257 melanoma,> 100 µM
same,TGI,DMS 114 small cell lung,> 100 µM
same,TGI,RXF-631 renal,> 100 µM
same,TGI,M14 melanoma,> 100 µM
same,TGI,786-0 renal,> 100 µM
same,TGI,SNB-19 CNS,> 100 µM
same,TGI,SK-OV-3 ovarian,> 100 µM
same,TGI,HOP-62 NSCLC,> 100 µM
same,TGI,IGROV1 ovarian,> 100 µM
same,TGI,KM12 colon,> 100 µM
same,TGI,SK-MEL-5 melanoma,> 100 µM
same,TGI,SW-620 colon,> 100 µM
same,TGI,HOP-92 NSCLC,> 100 µM
same,TGI,CAKI-1 renal,> 100 µM
same,TGI,SK-MEL-2 melanoma,> 100 µM
same,TGI,ACHN renal,> 100 µM
same,TGI,MALME-3M melanoma,> 100 µM
same,TGI,SNB-75 CNS,> 100 µM
same,TGI,HT29 colon,> 100 µM
same,TGI,SNB-78 CNS,> 100 µM
same,TGI,NCI-H23 lung,> 100 µM
N#CC(C#N)=Cc1ccc(C(O)P(=O)(O)O)cc1 (configuration not stated),TGI,CCRF-CEM leukemia,> 100 µM
same,TGI,OVCAR-4 ovarian,> 100 µM
same,TGI,UO-31 renal,> 100 µM
same,TGI,NCI-H460 lung,> 100 µM
same,TGI,NCI-H226 lung,> 100 µM
same,TGI,OVCAR-5 ovarian,> 100 µM
same,TGI,KM20L2 colon,> 100 µM
same,TGI,COLO 205 colon,> 100 µM
same,TGI,UACC-62 melanoma,> 100 µM
same,TGI,LXFL 529 NSCLC,> 100 µM
same,TGI,HCT-116 colon,> 100 µM
same,TGI,A549 NSCLC,> 100 µM
same,TGI,K-562 leukemia,> 100 µM
same,TGI,SF-268 CNS,> 100 µM
same,TGI,MOLT-4 leukemia,> 100 µM
same,TGI,SF-295 CNS,> 100 µM
same,TGI,OVCAR-3 ovarian,> 100 µM
same,TGI,U251 CNS,> 100 µM
same,TGI,A498 renal,> 100 µM
same,TGI,TK-10 renal,> 100 µM
same,TGI,LOX IMVI melanoma,> 100 µM
same,TGI,RPMI-8226 leukemia,> 100 µM
same,TGI,DLD-1 colon,> 100 µM
same,TGI,OVCAR-8 ovarian,> 100 µM
same,TGI,SN12C renal,> 100 µM
same,TGI,DMS 273 small cell lung,> 100 µM
same,TGI,NCI-H522 lung,> 100 µM
same,TGI,SF-539 CNS,> 100 µM
same,TGI,HL-60(TB) leukemia,> 100 µM
same,TGI,HCT-15 colon,> 100 µM
same,TGI,SK-MEL-28 melanoma,> 100 µM
same,TGI,XF 498 CNS,> 100 µM
same,TGI,M19-MEL melanoma,> 100 µM
same,TGI,UACC-257 melanoma,> 100 µM
same,TGI,HOP-18 NSCLC,> 100 µM
same,TGI,DMS 114 small cell lung,> 100 µM
same,TGI,RXF-631 renal,> 100 µM
same,TGI,M14 melanoma,> 100 µM
same,TGI,786-0 renal,> 100 µM
same,TGI,SNB-19 CNS,> 100 µM
same,TGI,SK-OV-3 ovarian,> 100 µM
same,TGI,HOP-62 NSCLC,> 100 µM
same,TGI,IGROV1 ovarian,> 100 µM
same,TGI,KM12 colon,> 100 µM
same,TGI,HCC-2998 colon,> 100 µM
same,TGI,SK-MEL-5 melanoma,> 100 µM
same,TGI,EKVX NSCLC,> 100 µM
same,TGI,SW-620 colon,> 100 µM
same,TGI,HOP-92 NSCLC,> 100 µM
same,TGI,CAKI-1 renal,> 100 µM
same,TGI,SK-MEL-2 melanoma,> 100 µM
same,TGI,ACHN renal,> 100 µM
same,TGI,MALME-3M melanoma,> 100 µM
same,TGI,HT29 colon,> 100 µM
same,TGI,SNB-78 CNS,> 100 µM
same,TGI,NCI-H23 lung,> 100 µM
CCC1(OC(=O)CNC)C(=O)OCc2c1cc1n(c2=O)Cc2cc3ccccc3nc2-1 (configuration not stated),TGI,CCRF-CEM leukemia,0.468 µM
same,TGI,OVCAR-4 ovarian,0.493 µM
same,TGI,UO-31 renal,0.0856 µM
same,TGI,NCI-H460 lung,0.399 µM
same,TGI,NCI-H226 lung,0.0641 µM
same,TGI,OVCAR-5 ovarian,0.221 µM
same,TGI,KM20L2 colon,2.05 µM
same,TGI,MDA-N,0.386 µM
same,TGI,RXF 393 renal,0.115 µM
same,TGI,COLO 205 colon,1.54 µM
same,TGI,UACC-62 melanoma,0.0186 µM
same,TGI,MCF7 breast,0.198 µM
same,TGI,LXFL 529 NSCLC,3.64 µM
same,TGI,HCT-116 colon,0.264 µM
same,TGI,MDA-MB-231 breast,3.94 µM
same,TGI,A549 NSCLC,0.958 µM
same,TGI,K-562 leukemia,> 60.1 µM
same,TGI,SF-268 CNS,0.709 µM
same,TGI,MOLT-4 leukemia,0.0631 µM
same,TGI,OVCAR-3 ovarian,0.401 µM
same,TGI,NCI/ADR-RES ovarian,0.0151 µM
same,TGI,U251 CNS,0.293 µM
same,TGI,A498 renal,0.104 µM
same,TGI,TK-10 renal,30.4 µM
same,TGI,LOX IMVI melanoma,0.137 µM
same,TGI,RPMI-8226 leukemia,0.415 µM
same,TGI,DLD-1 colon,26.8 µM
same,TGI,OVCAR-8 ovarian,> 24.4 µM
same,TGI,SN12C renal,0.849 µM
same,TGI,DMS 273 small cell lung,< 0.0144 µM
same,TGI,NCI-H522 lung,0.285 µM
same,TGI,SF-539 CNS,< 0.0203 µM
same,TGI,HL-60(TB) leukemia,0.159 µM
same,TGI,HCT-15 colon,> 100 µM
same,TGI,SK-MEL-28 melanoma,2.7 µM
same,TGI,M19-MEL melanoma,0.823 µM
same,TGI,UACC-257 melanoma,0.762 µM
same,TGI,HOP-18 NSCLC,0.812 µM
same,TGI,RXF-631 renal,0.0575 µM
same,TGI,M14 melanoma,1.27 µM
same,TGI,786-0 renal,0.0152 µM
same,TGI,PC-3 prostate,> 100 µM
same,TGI,SNB-19 CNS,6.12 µM
same,TGI,SK-OV-3 ovarian,0.152 µM
same,TGI,HOP-62 NSCLC,< 0.0143 µM
same,TGI,IGROV1 ovarian,2.21 µM
same,TGI,BT-549 breast,5.11 µM
same,TGI,KM12 colon,1.46 µM
same,TGI,HCC-2998 colon,1.57 µM
same,TGI,SK-MEL-5 melanoma,0.0337 µM
same,TGI,EKVX NSCLC,17 µM
same,TGI,SW-620 colon,19.5 µM
same,TGI,DU-145 prostate,0.0124 µM
same,TGI,HOP-92 NSCLC,1.56 µM
same,TGI,SK-MEL-2 melanoma,0.577 µM
same,TGI,ACHN renal,0.0184 µM
same,TGI,MALME-3M melanoma,1.31 µM
same,TGI,SNB-75 CNS,0.0842 µM
same,TGI,HT29 colon,2.64 µM
same,TGI,HS 578T breast,40.8 µM
same,TGI,SNB-78 CNS,> 86.9 µM
same,TGI,MDA-MB-435,0.279 µM
same,TGI,NCI-H23 lung,0.11 µM
